Assay results as given in patent US20090010873A1, “Methods of Cell Therapy, Neurogenesis and Oligodendrogenesis” (YEDA RESEARCH AND DEVELOPMENT CO. LTD., priority 2004, published 2009).

Legend:
[1] = test system: APP/PS1 Tg mice; experiment: GA vaccination of APP/PS1 Tg mice: Morris water maze; type: in vivo, mouse; conditions: five weeks after first GA injection, vs untreated Tg mice
[2] = test system: APP/PS1 Tg mice; experiment: GA vaccination of APP/PS1 Tg mice: hippocampal histology (plaques, microglia, neurons, neurogenesis); type: in vivo, mouse
Method: (xlviii) Glatiramer acetate vaccination. Each mouse was subcutaneously injected five times with a total of 100 μg of glatiramer acetate (GA (TV-5010), MW 13.5-18.5 kDa, average 16 kDa, Teva Pharmaceutical Industries Ltd., Petach Tikva, Israel), emulsified in 200 μl PBS×1, from experimental day 0 until day 24, twice during the first week and once a week thereafter.
(l) Administration of BrdU and tissue preparation. BrdU was dissolved by sonication in PBS and injected i.p. into each mouse (50 mg/kg body weight; 1.25 mg BrdU in 200 μl PBS×1). Starting from experimental day 22 after the first GA vaccination, BrdU was injected i.p. twice daily, every 12 h for 2.5 days, to label proliferating cells. Three weeks after the first BrdU injection the mice were deeply anesthetized and perfused transcardially, first with PBS and then with 4% paraformaldehyde. The whole brain was removed, postfixed overnight, and then equilibrated in phosphate-buffered 30% sucrose. Free-floating 30-μm sections were collected on a freezing microtome (Leica SM2000R) and stored at 4° C. prior to immunohistochemistry.
For immunohistochemistry, tissue sections were treated with a permeabilization/blocking solution containing 10% FCS, 2% bovine serum albumin, 1% glycine, and 0.05% Triton X-100 (Sigma-Aldrich, St. Louis). Tissue sections were stained overnight at 4° C. with specified combinations of the following primary antibodies: rat anti-BrdU (1:200; Oxford Biotechnology, Kidlington, Oxfordshire, UK), goat anti-DCX [doublecortin] (1:400; Santa Cruz Biotechnology), and mouse anti-NeuN [neuronal nuclear protein] (1:200; Chemicon, Temecula, Calif.). Secondary antibodies were FITC-conjugated donkey anti-goat, Cy-3-conjugated donkey anti-mouse, and Cy-3- or Cy-5-conjugated donkey anti-rat (1:200; Jackson ImmunoResearch, West Grove, Pa.). For labeling of microglia we used either CD11b (MAC1; 1:50; BD-Pharmingen) or FITC-conjugated Bandeiraea simplicifolia isolectin B4 (IB4, 1:50; Sigma-Aldrich, Rehovot). To detect expression of cell-surface MHC-II proteins we used anti-MHC-II Abs (rat, clone IBL-5/22; 1:50; Chemicon, Temecula, Calif.). To detect expression of human Aβ we used anti-Aβ (human amino-acid residues 1-17) (mouse, clone 6E10, Chemicon, Temecula, Calif.). Expression of IGF-I was detected by goat anti-IGF-I Abs (1:20; R&D Systems). Expression of TNF-α was detected by goat anti-TNF-α Abs (1:100; R&D Systems). T cells were detected with anti-CD3 polyclonal Abs (rabbit, 1:100; DakoCytomation, Calif.). Propidium iodide (1 μg/ml; Molecular Probes, Invitrogen, Carlsbad, Calif.) was used for nuclear staining.
For in-vivo experiments, the number of Aβ^+ plaques and CD11b^+/IB-4^+ microglia in the hippocampus were counted at 300-μm intervals from 6-8 coronal sections (30 μm) from each mouse. Neurogenesis in the DG was evaluated by counting of premature neurons (DCX^+), proliferating cells (BrdU^+), and newly formed mature neurons (BrdU^+/NeuN^+) in six coronal sections (30 μm) from each mouse. Specificity of BrdU^+/NeuN^+ co-expression was assayed using the confocal microscope (LSM 510) in optical sections at 1-μm intervals/. Cell counts, numbers of Aβ^+ plaques, plaque areas, and intensity of NeuN staining per unit area in the DG were evaluated automatically using Image-Pro Plus 4.5 software (Media Cybernetics).

Substance: glatiramer acetate [GA]
- MWM performance (spatial learning/memory) [1]: superior to that of the untreated Tg mice
- number of Aβ plaques in hippocampus ([2]; 6 weeks later, vs untreated Tg mice): significantly fewer plaques
- newly formed mature neurons (BrdU^+/NeuN^+) ([2]; compared to non-Tg littermates): similar
- DCX^+ cells in dentate gyrus ([2]; relative to non-Tg littermates): slightly but significantly more
- BrdU^+ cells in dentate gyrus ([2]; vs untreated Tg mice): significantly more BrdU^+ cells
- CD11b^+ microglia ([2]; vs untreated Tg mice): significantly fewer CD11b^+ microglia
- area occupied by the plaques ([2]; vs untreated Tg mice): significantly smaller
- staining for NeuN ([2]; vs untreated Tg mice): significantly more intense staining for NeuN
